Results: patent US7078434B1, “Use of Ginkgo extract” (Societe de Conseils de Recherches et d'Applications …, priority 1999, dated 2006)
Entries after “also recorded” stand apart in the source; their conditions may differ.

Key:
[1] = system: MDA-231 cell free radical production; assay: Analysis of oxidative stress (2,7-DCF fluorescent probe) in MDA-231 cells; format: cell-based, human
Source text: (§1) Cell Culture and Treatments. […] Radioligand Binding Assays. […] RNA (Northern) Analysis. […] Nucleic Acid Arrays. […] BrdU Cell Proliferation Assays. […] Analysis of oxidative stress. […] Biological Evaluation In Vivo. […] Immunocytochemistry of MDA-231 tumors. […] Statistical Analysis. […] (FIG. 5).

[2] = system: MCF-7 cells; assay: BrdU cell proliferation assay, MCF-7; format: cell-based, human; settings: 48 hours, 20 or 200 μg/ml EGB 761® or 2 or 20 μg/ml GKB; compared with MDA-231
Source text: as §1

[3] = system: PBR; assay: Immunocytochemistry of MDA-231 tumors with anti-PBR antiserum; format: in vivo, human; settings: 50 mg/kg EGB 761® per os or 1 mg/kg GKB ip
Method: Formalin embedded sections of MDA-231 xenografts were immunostained with an anti-PBR antiserum at 1:500 dilution as described in the Materials and Methods section. MDA-231 tumors were obtained from animals treated with vehicle (A–D), 50 mg/kg EGB 761® per os (E, G), or 1 mg/kg GKB ip (F, H). […] Arrowheads indicate nuclei. Magnification is ×75 for A, B, C, E, F, G, and H and ×150 for […].
as §1

[4] = system: MDA-231 cells; assay: BrdU cell proliferation assay, MDA-231
Method: 4 h prior to the end of incubation, bromodeoxyuridine (BrdU) was added to each well. Incorporation of BrdU was measured at 450 nm (reference=700 nm). Data points represent the mean±S.D. of four independent experiments carried out in quadruplicate.
4 h prior to the end of incubation, bromodeoxyuridine (BrdU) was added to each well. Incorporation of BrdU was measured at 450 nm (reference=700 nm). Data points represent the mean±S.D. of two independent experiments carried out in quadruplicate.
MDA-231 cells grown in 96-well plates were washed with PBS and cultured in media supplemented with 10% FBS in the presence or absence of either 2 μg/ml or 20 μg/ml GKB for 48 hours. 4 h prior to the end of incubation, bromodeoxyuridine (BrdU) was added to each well. Incorporation of BrdU was measured at 450 nm (reference=700 nm). Data points represent the mean±S.D. of two independent experiments carried out in quadruplicate.
Cell lines were cultured on polystyrene culture dishes (Corning) and grown in Dulbecco's modified Eagle medium (DMEM) supplemented with 10% fetal bovine serum (FBS). […] BrdU Cell Proliferation Assays. MDA-231 cells were plated on 96-well plates (Corning, Corning, N.J.) at a concentration of approximately 10,000 cells/well (24 h incubation) or approximately 5,000 cells/well (48 h incubation) in DMEM supplemented with 0.1% FBS. […] Differences in cell proliferation were analyzed by measuring the amount of 5-bromo-2′deoxyuridine (BrdU) incorporation determined by the BrdU ELISA (Boehringer Mannheim, Indianapolis, Ind.). Incorporation of BrdU was measured at 450 nm (reference at 690 nm).

[5] = system: PBR mRNA; assay: RNA (Northern) blot analysis of PBR mRNA in MDA-231 cells; format: cell-based, human; settings: 48 hours, 20 or 200 μg/ml EGB 761® or 2 or 20 μg/ml GKB
Source text: as §1

[6] = system: MDA-231 xenografts; assay: MDA-231 human breast cancer xenograft model in nude mice
Method: After the end of the treatment the animals were kept for 30 more days and then the animals were sacrificed on day 60. Data shown are means±S.E.M. (n=10).
Biological Evaluation In Vivo. […] Twice weekly tumor sizes and body weights were recorded for all animals for the 30 days of treatment as well for 30 days after the end of the treatment. At that time the animals were sacrificed and the tumors were removed and processed for immunohistochemistry. Animal care was in accordance with institutional guidelines. […] Statistical Analysis.

[7] = system: MDA-231 cells; assay: Additional cytotoxicity assays; format: cell-based; settings: human
Source text: It is of interest to note that even in the presence of high concentrations of either EGB 761® or GKB, PBR levels and rates of cell proliferation could not be reduced below 30% of normal values. […] It should be also noted that even at the highest concentrations used, neither EGB 761® nor GKB were toxic for the cells, because cell proliferation recovered upon removal of the compounds.

[8] = system: peripheral-type benzodiazepine receptor (PBR); assay: PBR ligand binding capacity of treated MDA-231 cells ([3H]PK 11195 saturation binding, Scatchard analysis); format: cell-based, human; settings: % of control values
Source text: as §1

In the case of `C[C@@H]1C(=O)O[C@H]2[C@H](O)C34[C@H]5C[C@@H](C(C)(C)C)C36C(O)C(=O)O[C@H]6O[C@@]4(C(=O)O5)[C@@]12O` (some centres unmarked) [GKB, ginkgolide B], the “effect on free radical / reactive oxygen species production” value [1] is reported as “absence of any significant decrease”, the “MCF-7 cell proliferation (BrdU incorporation)” value [2] is reported as “altered to a lesser degree” and the “nuclear PBR expression in cells found in the middle of the tumor” value [3] is reported as “reduced”. For the same molecule, the “nuclear PBR expression in the cells at the edge of the tumors” value ([3]; cytosolic immunostaining could be seen) was “eliminated”, the “MDA-231 cell proliferation (BrdU incorporation)” value ([4]; 10% FBS, EGB 761® up to 96 h, GKB 2 or 20 μg/ml 48 hours) was “significantly altered; also recorded: inhibited” and the “toxicity for the cells (recovery of proliferation upon removal)” value ([4]; highest concentrations used) was “cytostatic and not cytotoxic”. For the same molecule, the “PBR mRNA levels” value [5] was “reduced”, the “decrease in tumor size” value ([6]; 1 mg/kg ip once a day for 30 days, measured a month after the end of the treatment, p=0.043) was 32% and the animal body weight ([6]; 30 days treatment, 50 mg/kg EGB 761® or 1 mg/kg GKB, data not shown) was “did not affect”. For the same molecule, the cell death [7] was “neither EGB 761® nor GKB induced any significant cell death” and the “decrease of PBR levels (PBR ligand binding capacity, Bmax)” value [8] was 66%.
